Data as given in BindingDB's records for doi:10.1016/j.bmcl.2010.08.042 (Vanderbilt University Medical Center, 2010).
pEC50: −log10 of the molar value.

Target: T1, Muscarinic acetylcholine receptor M1 (Homo sapiens, UniProt P11229)
T1 sequence (P11229 whole entry): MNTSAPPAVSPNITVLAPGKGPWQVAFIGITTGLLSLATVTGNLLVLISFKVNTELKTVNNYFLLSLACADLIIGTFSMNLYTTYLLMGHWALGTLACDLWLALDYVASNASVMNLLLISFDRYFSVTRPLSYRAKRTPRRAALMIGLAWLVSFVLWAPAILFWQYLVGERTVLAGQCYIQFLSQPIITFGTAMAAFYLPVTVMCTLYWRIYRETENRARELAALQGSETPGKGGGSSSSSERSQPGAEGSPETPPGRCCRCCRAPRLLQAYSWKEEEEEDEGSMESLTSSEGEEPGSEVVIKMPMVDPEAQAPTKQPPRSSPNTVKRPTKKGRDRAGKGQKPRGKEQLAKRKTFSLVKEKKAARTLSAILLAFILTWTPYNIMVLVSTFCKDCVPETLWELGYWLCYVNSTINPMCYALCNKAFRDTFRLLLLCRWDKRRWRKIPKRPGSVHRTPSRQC
Assay: Positive allosteric modulation of muscarinic M1 receptor expressed in CHO cells assessed as effect on acetylcholine-induced intracellular calcium mobilization after 1 hr by FLIPR assay

With `O=C1C(=O)N(Cc2ccc(Br)cc2)c2ccccc21` the pEC50 was 5.21.
